Measurements taken from PubChem BioAssay (NCI).
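96-well plates; 48 h exposure; 5 concentrations. Endpoints by linear interpolation between flanking doses. Not reached: highest tested concentration assigned. Abbreviation: GI50, concentration required for 50% inhibition of growth. At the TGI there is no net growth.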

Legend:
Experiment in all cases: NCI tumour cell line growth inhibition, 48 h
[1] = tested on: IGROV1 ovarian
[2] = tested on: A498 renal
[3] = tested on: NCI-H23 lung
[4] = tested on: MOLT-4 leukemia
[5] = tested on: NCI-H226 lung
[6] = tested on: A549 NSCLC
[7] = tested on: RXF 393 renal

| Compound | TGI [1] | TGI [2] | TGI [3] | TGI [4] | TGI [5] | TGI [6] | TGI [7] | GI50 [1] | GI50 [2] | GI50 [3] | GI50 [4] | GI50 [5] | GI50 [6] | GI50 [7] |
| --- | --- | --- | --- | --- | --- | --- | --- | --- | --- | --- | --- | --- | --- | --- |
| COc1ccccc1NC(=O)C(CC(C(=O)Nc1ccccc1OC)/C(C)=N/NC(=O)c1ccccc1O)/C(C)=N/NC(=O)c1ccccc1O (stereo not drawn) | > 100 µM | > 100 µM | > 100 µM | > 100 µM | > 100 µM | > 100 µM | > 100 µM | – | – | – | – | – | – | – |
| COC(=O)C1=C(C)N(NC(N)=O)C(C)(O)C12CCOC2=O (stereo not drawn) | > 100 µM | > 100 µM | > 100 µM | > 100 µM | > 100 µM | > 100 µM | – | – | – | – | – | – | – | – |
| FC(F)(F)c1cccc(C2SCc3nc4ccccc4n32)c1 (stereo not drawn) | > 100 µM | – | > 100 µM | > 100 µM | > 100 µM | > 100 µM | > 100 µM | – | – | – | – | – | – | – |
| COc1ccc(C2C3=C(COC3=O)Oc3cc4c(cc32)OCO4)cc1 (stereo not drawn) | > 100 µM | – | > 100 µM | 81.1 µM | – | > 100 µM | > 100 µM | – | – | – | – | – | – | – |
| CCCCCCCCCCCCC(CCCCCCCCCCCC)OP(=O)(O)O | > 100 µM | 52.8 µM | > 100 µM | > 100 µM | > 100 µM | > 100 µM | > 100 µM | – | – | – | – | – | – | – |
| O=C(O)[C@@H](NS(=O)(=O)c1ccc([N+](=O)[O-])cc1)c1ccccc1 | > 100 µM | > 100 µM | > 100 µM | > 100 µM | > 100 µM | > 100 µM | > 100 µM | – | – | – | – | – | – | – |
| CCOC(=O)C(C(=O)OCC)=c1sc(=C(C(=O)OCC)C(=O)OCC)s1 | > 100 µM | – | > 100 µM | > 100 µM | – | > 100 µM | > 100 µM | – | – | – | – | – | – | – |
| CCCN1C(=O)CNC(=O)c2[nH]cnc21 | > 100 µM | > 100 µM | > 100 µM | > 100 µM | > 100 µM | > 100 µM | > 100 µM | – | – | – | – | – | – | – |
| COc1cc(Nc2nc3cc(C(F)(F)F)ccc3nc2C)cc(OC)c1OC | 32 µM | 18.8 µM | 23.2 µM | 31 µM | 22.8 µM | – | 17.9 µM | – | – | – | – | – | – | – |
| C=C[C@H]1C=Cc2c(OC)cccc2[C@@H]1COP1(=S)NC(C)C(c2ccccc2)O1 (stereo partly drawn) | > 100 µM | – | > 100 µM | > 100 µM | > 100 µM | > 100 µM | > 100 µM | – | – | – | – | – | – | – |
| c1ccc2c(CNCCCCCCCCCCCCNCc3cccc4ccccc34)cccc2c1 | 3.39 µM | 19.7 µM | 2.89 µM | 2.92 µM | 4.57 µM | 3.37 µM | 2.66 µM | – | – | – | – | – | – | – |
| Cc1ccc(N2C(=O)C(Cl)=C(Cl)C2=O)cc1 | 43.4 µM | > 100 µM | 41.3 µM | 46.5 µM | > 100 µM | > 100 µM | 25.4 µM | – | – | – | – | – | – | – |
| O=NN(CCCl)C(=O)N[C@H]1CCCC[C@@H]1Cl | > 100 µM | > 100 µM | > 100 µM | > 100 µM | > 100 µM | > 100 µM | > 100 µM | – | – | – | – | – | – | – |
| COC(=O)[C@@]12C=CC(=O)[C@H]3C[C@@H](C(C(C)C)C1)[C@]32OC (stereo partly drawn) | > 100 µM | > 100 µM | > 100 µM | > 100 µM | – | > 100 µM | > 100 µM | – | – | – | – | – | – | – |
| O=C(C=Nc1ccccc1C(=O)[O-])c1cccs1.O=C(C=Nc1ccccc1C(=O)[O-])c1cccs1.[Zn+2] | 76 µM | > 100 µM | > 100 µM | > 100 µM | – | > 100 µM | – | – | – | – | – | – | – | – |
| CCCCCCCCCCCCCCCCCC[N+](C)(C)Cc1ccc(C[N+](C)(C)CCCCCCCCCCCCCCCCCC)cc1 | > 100 µM | 91.7 µM | 18 µM | 51.8 µM | 41.5 µM | 38.8 µM | 6.67 µM | – | – | – | – | – | – | – |
| CCOC(=O)NC1CC2CCC1(OC)C=C2C (stereo not drawn) | > 100 µM | > 100 µM | > 100 µM | > 100 µM | > 100 µM | > 100 µM | > 100 µM | – | – | – | – | – | – | – |
| COC(=O)Cc1cc(=O)n2c([nH]c3ccccc32)c1C#N | > 100 µM | > 100 µM | > 100 µM | > 100 µM | > 100 µM | > 100 µM | > 100 µM | – | – | – | – | – | – | – |
| C[CH2][Sn]([CH2]C)([O]C(=O)c1ccc(F)cc1)[O][Sn]([CH2]C)([CH2]C)[O]C(=O)c1ccc(F)cc1 | > 100 µM | 30 µM | > 100 µM | > 100 µM | 87.5 µM | > 100 µM | 29.9 µM | > 100 µM | 16.4 µM | 41 µM | 47.1 µM | 30.8 µM | > 100 µM | 15.7 µM |
| Cc1ccccc1NC(=O)c1ccc([N+](=O)[O-])cc1 | > 100 µM | > 100 µM | > 100 µM | > 100 µM | > 100 µM | > 100 µM | > 100 µM | – | – | – | – | – | – | – |
| CCOC(=O)c1cc(OC(=O)CC)c2c(OC)ccc(OC)c2c1 | > 100 µM | – | > 100 µM | > 100 µM | – | > 100 µM | 69.7 µM | – | – | – | – | – | – | – |
| CC(C)c1cccc(C(C)C)c1NC(=O)CCC(=O)NN | > 100 µM | > 100 µM | > 100 µM | > 100 µM | > 100 µM | > 100 µM | – | – | – | – | – | – | – | – |
| c1ccc2c(c1)[nH]c1c2ncc2[nH]c3ccccc3c21 | 22.5 µM | 9.07 µM | 33.5 µM | 8.96 µM | 49.1 µM | 22.6 µM | – | – | – | – | – | – | – | – |
